Results: ChEMBL document CHEMBL1130223 (J Med Chem, 1997)
Active and inactive are the calls of the source. The calls are words filed in the database; no cut-off is given here.

How the values were obtained:
[1] = test system: NG108-15; assay: Agonist/antagonist activity by observing the uptake of [14C]guanidinium, on the neuroblastoma-glioma hybrid NG108-15 cells; pure agonist; type: functional, cell-based; conditions: filed as agonist
[2] = molecular target: T1, Serotonin 3 (5-HT3) receptor (Rattus norvegicus, UniProt P35563+Q9JJ16); assay: Inhibition of [3H]BRL-43694 binding to 5-hydroxytryptamine 3 receptor of rat cortical homogenate.
T1 sequence (P35563 whole entry): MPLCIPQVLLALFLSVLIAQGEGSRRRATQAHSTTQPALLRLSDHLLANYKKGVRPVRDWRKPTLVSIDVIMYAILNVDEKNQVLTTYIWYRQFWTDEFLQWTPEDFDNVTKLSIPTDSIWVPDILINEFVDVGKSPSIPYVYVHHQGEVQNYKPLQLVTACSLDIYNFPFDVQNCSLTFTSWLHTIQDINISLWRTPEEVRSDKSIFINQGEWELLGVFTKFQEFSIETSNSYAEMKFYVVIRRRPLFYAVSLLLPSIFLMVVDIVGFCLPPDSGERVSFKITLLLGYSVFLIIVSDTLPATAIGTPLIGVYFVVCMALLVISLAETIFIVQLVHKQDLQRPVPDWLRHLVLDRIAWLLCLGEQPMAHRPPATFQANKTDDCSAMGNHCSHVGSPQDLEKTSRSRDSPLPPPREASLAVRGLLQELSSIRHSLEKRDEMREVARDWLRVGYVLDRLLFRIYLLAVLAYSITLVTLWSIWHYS
T1 sequence (Q9JJ16 whole entry): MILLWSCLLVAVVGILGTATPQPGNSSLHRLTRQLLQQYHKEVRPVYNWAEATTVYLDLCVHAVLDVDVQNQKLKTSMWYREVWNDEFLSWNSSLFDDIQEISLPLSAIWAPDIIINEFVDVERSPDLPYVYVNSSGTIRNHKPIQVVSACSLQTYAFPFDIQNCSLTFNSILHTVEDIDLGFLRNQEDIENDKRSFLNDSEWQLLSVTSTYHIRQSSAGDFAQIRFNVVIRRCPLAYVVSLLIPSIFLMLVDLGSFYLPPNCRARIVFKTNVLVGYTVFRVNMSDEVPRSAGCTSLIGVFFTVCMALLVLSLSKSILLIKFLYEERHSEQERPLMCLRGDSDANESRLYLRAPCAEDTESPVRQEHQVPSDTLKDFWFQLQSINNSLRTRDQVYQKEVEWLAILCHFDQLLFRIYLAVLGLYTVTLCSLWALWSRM

[3] = test system: NG108-15; assay: Effective concentration for uptake of [14C]guanidinium on NG108-15 cells; type: functional, cell-based; conditions: Murinae
[4] = molecular target: T2, Serotonin 3 (5-HT3) receptor (Rattus norvegicus) (UniProt P35563+Q9JJ16); assay: The stimulation of cardiac 5-HT3 receptors evaluated by using von Bezold-Jarisch reflex test in urethane-anesthetized rats; partial agonist; type: functional; conditions: filed as partial agonist
[5] = molecular target: T2, Serotonin 3 (5-HT3) receptor (Rattus norvegicus); assay: Dose required to stimulate cardiac 5-HT3 receptors evaluated by using von Bezold-Jarisch reflex test in urethane-anesthetized rats after intravenous administration; type: functional, organism-based
[6] = molecular target: 5-hydroxytryptamine receptor 4 (Rattus norvegicus, UniProt Q62758); assay: Inhibition of radiolabeled [3H]GR-113808 ligand binding to 5-hydroxytryptamine 4 receptor
[7] = organism: Rattus norvegicus; assay: Inhibitory activity for 5-HT uptake was determined using [3H]- Citalopram; type: functional
[8] = molecular target: T2, Serotonin 3 (5-HT3) receptor (Rattus norvegicus); assay: The stimulation of cardiac 5-HT3 receptors evaluated by using von Bezold-Jarisch reflex test in urethane-anesthetized rats; pure antagonist; type: functional; conditions: filed as antagonist
[9] = molecular target: T3, 5-hydroxytryptamine receptor 1A (Rattus norvegicus, UniProt P19327); assay: Inhibition of radiolabeled [3H]-8-OH-DPAT ligand binding to 5-hydroxytryptamine 1A receptor
T3 sequence (P19327 whole entry): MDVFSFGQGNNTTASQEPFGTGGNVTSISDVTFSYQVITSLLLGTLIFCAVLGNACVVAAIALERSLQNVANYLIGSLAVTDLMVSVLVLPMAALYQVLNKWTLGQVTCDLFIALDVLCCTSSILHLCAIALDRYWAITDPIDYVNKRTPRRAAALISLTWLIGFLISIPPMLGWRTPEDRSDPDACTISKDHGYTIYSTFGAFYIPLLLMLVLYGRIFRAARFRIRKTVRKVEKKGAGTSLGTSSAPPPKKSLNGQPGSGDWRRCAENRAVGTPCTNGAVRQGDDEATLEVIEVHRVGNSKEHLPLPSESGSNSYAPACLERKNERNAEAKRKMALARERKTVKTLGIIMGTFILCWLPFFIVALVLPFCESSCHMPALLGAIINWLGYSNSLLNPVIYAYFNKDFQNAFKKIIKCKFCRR

[10] = molecular target: 5-hydroxytryptamine receptor 2A (Rattus norvegicus, UniProt P14842); assay: Inhibition of radiolabeled [3H]-Ketanserin ligand binding to 5-hydroxytryptamine 2A receptor
[11] = molecular target: T4, 5-hydroxytryptamine receptor 2C (Rattus norvegicus, UniProt P08909); assay: Inhibition of radiolabeled [3H]mesulergine ligand binding to 5-hydroxytryptamine 2C receptor
T4 sequence (P08909 whole entry): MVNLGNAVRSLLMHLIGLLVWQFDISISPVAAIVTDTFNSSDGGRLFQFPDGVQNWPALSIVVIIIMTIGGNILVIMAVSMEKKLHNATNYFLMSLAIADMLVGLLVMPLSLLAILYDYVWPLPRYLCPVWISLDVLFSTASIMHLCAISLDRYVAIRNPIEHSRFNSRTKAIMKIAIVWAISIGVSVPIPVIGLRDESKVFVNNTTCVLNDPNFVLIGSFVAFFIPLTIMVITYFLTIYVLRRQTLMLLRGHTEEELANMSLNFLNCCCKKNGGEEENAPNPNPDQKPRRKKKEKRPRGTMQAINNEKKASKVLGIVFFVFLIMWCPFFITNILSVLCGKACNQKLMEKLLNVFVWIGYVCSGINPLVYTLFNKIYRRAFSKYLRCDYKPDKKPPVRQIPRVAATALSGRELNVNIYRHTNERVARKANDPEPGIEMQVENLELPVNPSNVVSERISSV

[12] = molecular target: 5-hydroxytryptamine receptor 1B (Rattus norvegicus, UniProt P28564); assay: Inhibition of radiolabeled [3H]-5-HT ligand binding to 5-hydroxytryptamine 1B receptor
[13] = Potency to cross blood-brain barrier was assessed; type: functional
[14] = molecular target: T2, Serotonin 3 (5-HT3) receptor (Rattus norvegicus); assay: The stimulation of cardiac 5-HT3 receptors evaluated by using von Bezold-Jarisch reflex test in urethane-anesthetized rats; Partial agonist; type: functional; conditions: filed as partial agonist
[15] = test system: NG108-15; assay: Agonist/antagonist activity by observing the uptake of [14C]guanidinium, on the neuroblastoma-glioma hybrid NG108-15 cells; Not active at 10000 nm; type: functional, cell-based
[16] = molecular target: T1, Serotonin 3 (5-HT3) receptor; assay: Inhibition of [3H]BRL-43694 binding to 5-hydroxytryptamine 3 receptor of rat cortical homogenate; Not active at 10000 nm
[17] = molecular target: T1, Serotonin 3 (5-HT3) receptor; assay: Inhibition of radiolabeled [3H]-Zacopride ligand binding to 5-hydroxytryptamine 3 receptor; type: protein-complex assay
[18] = molecular target: T2, Serotonin 3 (5-HT3) receptor (Rattus norvegicus); assay: Dose required to stimulate cardiac 5-HT3 receptors evaluated by using von Bezold-Jarisch reflex test in urethane-anesthetized rats; type: functional
[19] = molecular target: T2, Serotonin 3 (5-HT3) receptor (Rattus norvegicus); assay: The stimulation of cardiac 5-HT3 receptors evaluated by using von Bezold-Jarisch reflex test inurethane-anesthetized rats; Pure Antagonist; type: functional; conditions: filed as antagonist
[20] = molecular target: T4, 5-hydroxytryptamine receptor 2C; assay: Inhibition of radiolabeled [3H]-Ketanserin ligand binding to 5-hydroxytryptamine 2C receptor
[21] = molecular target: T2, Serotonin 3 (5-HT3) receptor (Rattus norvegicus); assay: The stimulation of cardiac 5-HT3 receptors evaluated by using von Bezold-Jarisch reflex test in urethane-anesthetized rats; pure agonist; type: functional; conditions: filed as agonist

Chain of 5-hydroxytryptamine receptor 1B (P28564 whole entry): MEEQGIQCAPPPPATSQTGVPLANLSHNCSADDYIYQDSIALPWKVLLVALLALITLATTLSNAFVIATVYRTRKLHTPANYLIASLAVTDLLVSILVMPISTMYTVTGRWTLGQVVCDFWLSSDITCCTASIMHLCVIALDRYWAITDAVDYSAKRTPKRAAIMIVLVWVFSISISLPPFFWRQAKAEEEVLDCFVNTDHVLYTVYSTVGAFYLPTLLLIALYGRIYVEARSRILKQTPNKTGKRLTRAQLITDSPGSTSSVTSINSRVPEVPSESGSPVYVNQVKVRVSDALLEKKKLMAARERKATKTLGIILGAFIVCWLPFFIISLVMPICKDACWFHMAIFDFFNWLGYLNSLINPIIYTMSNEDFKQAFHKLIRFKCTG
Chain of 5-hydroxytryptamine receptor 4 (Q62758 whole entry): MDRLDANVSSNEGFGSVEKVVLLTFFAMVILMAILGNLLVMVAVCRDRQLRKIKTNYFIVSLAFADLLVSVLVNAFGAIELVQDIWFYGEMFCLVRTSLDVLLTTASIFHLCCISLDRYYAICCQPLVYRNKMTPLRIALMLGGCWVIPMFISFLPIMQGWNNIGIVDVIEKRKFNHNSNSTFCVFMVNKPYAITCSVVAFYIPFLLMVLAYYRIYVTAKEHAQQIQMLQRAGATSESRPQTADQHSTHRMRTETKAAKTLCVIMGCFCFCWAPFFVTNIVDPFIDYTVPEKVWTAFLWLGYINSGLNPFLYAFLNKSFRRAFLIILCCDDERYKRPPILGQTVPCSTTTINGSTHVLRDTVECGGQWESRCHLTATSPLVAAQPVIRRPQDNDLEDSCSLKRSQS
Chain of 5-hydroxytryptamine receptor 2A (P14842 whole entry): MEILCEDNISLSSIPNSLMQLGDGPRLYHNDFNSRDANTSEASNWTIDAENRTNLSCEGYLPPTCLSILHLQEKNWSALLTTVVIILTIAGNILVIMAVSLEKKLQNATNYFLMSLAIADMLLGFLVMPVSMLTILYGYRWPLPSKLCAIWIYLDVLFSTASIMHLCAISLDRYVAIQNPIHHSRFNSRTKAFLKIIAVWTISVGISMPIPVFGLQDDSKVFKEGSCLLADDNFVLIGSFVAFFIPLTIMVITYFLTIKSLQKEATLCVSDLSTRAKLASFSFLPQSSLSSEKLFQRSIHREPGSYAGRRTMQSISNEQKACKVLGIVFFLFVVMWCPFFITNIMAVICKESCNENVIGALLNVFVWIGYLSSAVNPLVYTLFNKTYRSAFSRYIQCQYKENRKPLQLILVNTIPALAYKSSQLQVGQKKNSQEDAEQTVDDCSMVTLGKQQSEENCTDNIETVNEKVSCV

SMILES	Efficacy [1]	IC50 [2]	EC50 [3]	ID50 [5]	IC50 [7]	other results
C=CCN1CCN(c2nc3ccccc3n3cccc23)CC1	Agonist	11 nM	8.2 nM	0.18 mg/kg		Behavior [4]: Partial agonist
Fc1ccc2c(c1)nc(N1CCNCC1)c1cccn12	Agonist	5.4 nM	3.5 nM	0.01 mg/kg	203 nM	IC50 [6]: > 10000 nM; Behavior [8]: Antagonist; IC50 [9]: 151 nM; IC50 [10]: 489 nM; IC50 [11]: 2800 nM; IC50 [12]: 167 nM; Ratio [13]: 37.5
CN1CCN(c2nc3cccc(F)c3n3cccc23)CC1	Agonist	0.44 nM	6.5 nM	0.12 mg/kg		Behavior [14]: Partial agonist
NCCc1c[nH]c2ccc(O)cc12 [SEROTONIN]					369 nM	
CCCN1CCN(c2nc3ccccc3n3cccc23)CC1	Agonist	51 nM	8.5 nM	0.24 mg/kg		Behavior [14]: Partial agonist
c1ccc2nc(N3CCNCC3)ccc2c1 [QUIPAZINE]	Agonist	6.2 nM	25 nM		204 nM	IC50 [6]: > 10000 nM; IC50 [10]: 1400 nM; IC50 [11]: 470 nM; IC50 [12]: 380 nM
CN1CCN(c2nc3cc(C(F)(F)F)ccc3n3cccc23)CC1						Efficacy [15]: inactive; IC50 [16]: Not Active
CN1C[C@@H](NS(=O)(=O)N(C)C)C[C@@H]2c3cccc4c3c(cn4C)C[C@H]21 [MESULERGINE]						IC50 [17]: 2.13 nM
CN1CCN(c2nc3cc(F)ccc3n3cccc23)CC1	Agonist	0.81 nM	3 nM		232 nM	IC50 [6]: > 10000 nM; IC50 [9]: 138 nM; IC50 [10]: 124 nM; IC50 [11]: 413 nM; IC50 [12]: 371 nM; ID50 [18]: 0.6 mg/kg; Ratio [13]: 17.5; Behavior [19]: Antagonist
CCN1CCN(c2nc3ccccc3n3cccc23)CC1	Agonist	9 nM	8 nM	0.1 mg/kg		Behavior [8]: Antagonist
CN1CCN(c2nc3ccccc3n3cccc23)CC1	Agonist		10 nM		214 nM	IC50 [6]: > 10000 nM; IC50 [9]: 89 nM; IC50 [10]: 43 nM; IC50 [11]: 780 nM; IC50 [12]: 232 nM
CCCN1CCN(c2nc3cc(F)ccc3n3cccc23)CC1	Agonist	88 nM	580 nM	0.2 mg/kg		Behavior [4]: Partial agonist
Cc1[nH]c2ccc(O)cc2c1CCN		779 nM				
CCC(CC)NC(=O)[C@@H]1C=C2c3cccc4c3c(cn4C)C[C@H]2N(C)C1 [METHSERGIDE]						IC50 [20]: 3.1 nM
CN1CCN(c2cnc3ccccc3n2)CC1	Agonist	22 nM	510 nM	0.06 mg/kg		Behavior [21]: Agonist
CN1CCN(c2nc3c(F)cccc3n3cccc23)CC1	Agonist	9.5 nM	4.7 nM	0.12 mg/kg		Behavior [14]: Partial agonist
CCCN1CCN(c2nc3cccc(F)c3n3cccc23)CC1	Agonist	82 nM	73 nM	0.3 mg/kg		Behavior [14]: Partial agonist
C=CCN1CCN(c2nc3cccc(F)c3n3cccc23)CC1	Agonist	28 nM	30 nM	0.075 mg/kg		Behavior [14]: Partial agonist
Fc1cccc2nc(N3CCNCC3)c3cccn3c12	Agonist	3.9 nM	98 nM	0.07 mg/kg	1130 nM	IC50 [6]: > 10000 nM; Behavior [8]: Antagonist; IC50 [9]: 268 nM; IC50 [10]: 761 nM; IC50 [11]: 784 nM; IC50 [12]: 106 nM
C=CCN1CCN(c2nc3cc(F)ccc3n3cccc23)CC1	Agonist	22 nM	76 nM	0.1 mg/kg		Behavior [4]: Partial agonist
